The term pIC50 denotes the negative decadic logarithm of the IC50, by convention in mol/L.

pIC50: −log10 of the molar value. Bounds are passed on as bounds.

Our source for the IC50 values is patent US20240287080A1 (IDEAYA Biosciences Inc., priority 2021, published 2024).

The target in this test is T1, Pol theta (1-899) (Homo sapiens, UniProt O75417).
T1 construct: Pol theta (1-899) (5 nM) in assay buffer
T1 sequence (O75417 1-899): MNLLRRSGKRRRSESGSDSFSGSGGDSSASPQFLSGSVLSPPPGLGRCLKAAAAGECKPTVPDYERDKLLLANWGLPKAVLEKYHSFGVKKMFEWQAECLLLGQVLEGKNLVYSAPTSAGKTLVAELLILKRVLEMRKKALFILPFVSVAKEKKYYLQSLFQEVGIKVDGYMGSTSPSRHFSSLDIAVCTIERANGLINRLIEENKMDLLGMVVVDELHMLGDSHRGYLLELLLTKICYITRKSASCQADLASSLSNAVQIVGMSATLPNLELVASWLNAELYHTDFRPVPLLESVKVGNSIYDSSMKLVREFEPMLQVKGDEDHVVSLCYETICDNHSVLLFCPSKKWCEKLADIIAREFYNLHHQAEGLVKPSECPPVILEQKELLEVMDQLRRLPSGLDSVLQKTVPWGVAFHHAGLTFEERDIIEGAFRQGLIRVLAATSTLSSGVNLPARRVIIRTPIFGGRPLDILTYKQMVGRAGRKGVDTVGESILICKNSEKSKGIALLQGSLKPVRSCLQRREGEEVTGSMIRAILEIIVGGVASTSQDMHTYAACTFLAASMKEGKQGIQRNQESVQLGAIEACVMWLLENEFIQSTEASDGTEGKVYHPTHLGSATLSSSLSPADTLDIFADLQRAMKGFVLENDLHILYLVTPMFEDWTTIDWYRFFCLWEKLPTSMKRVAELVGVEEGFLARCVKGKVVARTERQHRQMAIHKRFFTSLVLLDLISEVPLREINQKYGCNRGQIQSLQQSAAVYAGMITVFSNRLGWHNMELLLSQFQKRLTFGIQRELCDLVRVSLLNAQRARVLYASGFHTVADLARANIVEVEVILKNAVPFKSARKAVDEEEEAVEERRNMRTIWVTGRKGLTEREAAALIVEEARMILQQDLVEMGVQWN
The test is described as follows: Pol theta ATPase activity, NADH oxidation-coupled enzymatic assay (ATPase NADH coupling: Standard Screening: hPolQ). Format: biochemical. The following applies: Table 5; Pol theta (1-899) 5 nM, ATP, dT50 ssDNA. How it is done:
The ability of the compounds of Formula (I) or Table 1 to inhibit ATPase activity of Pol theta (1-899) was determined using the assay described below. Pol Theta ATPase activity was determined by measuring the rate of ATP turn over in a NADH oxidation-coupled enzymatic assay. 10-point dilution series of compounds were used in a 384 well format for the inhibition assays. Pol theta (1-899) (5 nM) in assay buffer (20 mM Tris HCl (pH 7.80), 80 mM KCl, 10 mM MgCl2, 1 mM DTT, 0.01% BSA, 0.01% Tween, 5% glycerol) was transferred to the test wells (20 μL), except the low control wells (20 μL of assay buffer was added to the low control wells). The plate was then incubated at room temperature for 15 min. An equal volume (20 μL) of 100 μM ATP, 300 nM […] (single-stranded DNA (ssDNA) containing 50 thymine bases), 300 μM NADH, 6 mM PEP, 10 U/mL lactate dehydrogenase and 20 U/mL pyruvate kinase in assay buffer was added to all the test wells. The plate was then centrifuged at 1000 rpm for 1 min. The reaction was monitored for 60 min by measuring absorbance (λ=340 nm) in a Tecan Spark multimode plate reader every minute. The high control (DMSO with enzyme) with low absorbance intensity represents no inhibition of ATPase reaction while the low control (DMSO with buffer) with high absorbance intensity represents full inhibition of ATPase activity. Slope of the reaction progress curves were used to calculate the rate of ATP hydrolysis. The rates were used to determine the percent inhibition using a four-parameter inhibition model to generate IC50, Hill slope and max inhibition.
With `COc1cnc(Cl)c(F)c1-c1cc(C)ncc1C(=O)Nc1nnc(O[C@H]2CC[C@](C)(O)CC2)s1` (single isomer, unassigned) [Example 172, 2′-chloro-3′-fluoro-N-(5-(((1r,4r)-4-hydroxy-4-methylcyclohexyl)oxy)-1,3,4-thiadiazol-2-yl)-5′-methoxy-6-methyl-(4,4′-bipyridine)-3-carboxamide], the pIC50 was not below 6.70.
The figure for `COc1cnc(Cl)cc1-c1cc(C)ncc1C(=O)Nc1nnc(OC2CCC3(CCCO3)CC2)s1` (single isomer, unassigned) [Example 173, N-(5-(((5s,8r)-1-oxaspiro(4.5)decan-8-yl)oxy)-1,3,4-thiadiazol-2-yl)-2′-chloro-5′-methoxy-6-methyl-(4,4′-bipyridine)-3-carboxamide] is not below 6.70; for `COc1cnc(Cl)cc1-c1cc(C)ncc1C(=O)Nc1nnc(OC2CCC3(CCCO3)CC2)s1` (single isomer, unassigned) [Example 174, N-(5-(((5r,8s)-1-oxaspiro(4.5)decan-8-yl)oxy)-1,3,4-thiadiazol-2-yl)-2′-chloro-5′-methoxy-6-methyl-(4,4′-bipyridine)-3-carboxamide] it is not below 6.70; for `COc1cnc(Cl)cc1-c1cc(C)ncc1C(=O)Nc1nnc(O[C@H]2CCC[C@@](C)(O)C2)s1` (single isomer, unassigned) [Example 179] it is not below 6.70.
To `COc1cnc(Cl)cc1-c1cc(C)ncc1C(=O)Nc1nnc(O[C@@H]2CCC[C@](C)(O)C2)s1` (single isomer, unassigned) [Example 180] belongs 6.30 to 6.70; to `COc1cnc(Cl)cc1-c1cc(C)ncc1C(=O)Nc1nnc(O[C@H]2CCC[C@](C)(O)C2)s1` (single isomer, unassigned) [Example 181], not below 6.70.
In turn, `COc1cnc(Cl)cc1-c1cc(C)ncc1C(=O)Nc1nnc(O[C@@H]2CCC[C@@](C)(O)C2)s1` (single isomer, unassigned) [Example 182] showed a pIC50 not below 6.70.
To `COc1cnc(Cl)cc1-c1cc(C)ncc1C(=O)Nc1nnc(O[C@H]2C[C@@H](O)C2(C)C)s1` (single isomer, unassigned) [Example 183, 2′-chloro-N-(5-((1r,3s)-3-hydroxy-2,2-dimethylcyclobutoxy)-1,3,4-thiadiazol-2-yl)-5′-methoxy-6-methyl-(4,4′-bipyridine)-3-carboxamide] belongs not below 6.70.
The figure for `COc1cnc(Cl)cc1-c1cc(C)ncc1C(=O)Nc1nnc(O[C@H]2C[C@H](O)C2(C)C)s1` (single isomer, unassigned) [Example 184, 2′-chloro-N-(5-((1r,3r)-3-hydroxy-2,2-dimethylcyclobutoxy)-1,3,4-thiadiazol-2-yl)-5′-methoxy-6-methyl-(4,4′-bipyridine)-3-carboxamide] is not below 6.70; for `COc1cnc(Cl)cc1-c1cc(C)ncc1C(=O)Nc1nnc(O[C@H]2CC[C@]3(CCO3)CC2)s1` (single isomer, unassigned) [Example 185, N-(5-(((4s, 7s)-1-oxaspiro(3.5)nonan-7-yl)oxy)-1,3,4-thiadiazol-2-yl)-2′-chloro-5′-methoxy-6-methyl-(4,4′-bipyridine)-3-carboxamide] it is not below 6.70; for `COc1cnc(Cl)cc1-c1cc(C)ncc1C(=O)Nc1nnc(O[C@H]2CC[C@@]3(CCO3)CC2)s1` (single isomer, unassigned) [Example 186, N-(5-(((4r,7r)-1-oxaspiro(3.5)nonan-7-yl)oxy)-1,3,4-thiadiazol-2-yl)-2′-chloro-5′-methoxy-6-methyl-(4,4′-bipyridine)-3-carboxamide] it is not below 6.70.
The figure for `COc1cnc(Cl)cc1-c1cc(C)ncc1C(=O)Nc1nnc(O[C@@H]2CO[C@H](C)C2)s1` (single isomer, unassigned) [Example 189] is not below 6.70.
In turn, `COc1cnc(Cl)cc1-c1cc(C)ncc1C(=O)Nc1nnc(O[C@@H]2CO[C@@H](C)C2)s1` (single isomer, unassigned) [Example 190] showed a pIC50 not below 6.70.
To `COc1cnc(Cl)cc1-c1cc(C)ncc1C(=O)Nc1nnc(O[C@H]2CO[C@@H](C)C2)s1` (single isomer, unassigned) [Example 191] belongs not below 6.70; to `COc1cnc(Cl)cc1-c1cc(C)ncc1C(=O)Nc1nnc(O[C@H]2CO[C@H](C)C2)s1` (single isomer, unassigned) [Example 192], not below 6.70; to `COc1cnc(Cl)c(F)c1-c1cc(C)ncc1C(=O)Nc1nnc(O[C@H]2CC[C@H](O)C2)s1` (single isomer, unassigned) [Example 197], not below 6.70.
To `COc1cnc(Cl)c(F)c1-c1cc(C)ncc1C(=O)Nc1nnc(O[C@@H]2CC[C@@H](O)C2)s1` (single isomer, unassigned) [Example 198] belongs not below 6.70.
The figure for `COc1cnc(Cl)cc1-c1cc(C)ncc1C(=O)Nc1nnc(O[C@H]2CC[C@H]([C@@H](C)O)CC2)s1` (single isomer, unassigned) [Example 199] is not below 6.70; for `COc1cnc(Cl)cc1-c1cc(C)ncc1C(=O)Nc1nnc(O[C@H]2CC[C@H]([C@H](C)O)CC2)s1` (single isomer, unassigned) [Example 200] it is not below 6.70.
`COc1cnc(C)c(F)c1-c1cc(C)ncc1C(=O)Nc1nnc(O[C@@H]2COC3(CC3)C2)s1` (single isomer, unassigned) [Example 207]: the pIC50 was not below 6.70.
`COc1cnc(C)c(F)c1-c1cc(C)ncc1C(=O)Nc1nnc(O[C@H]2COC3(CC3)C2)s1` (single isomer, unassigned) [Example 208]: the pIC50 was not below 6.70.
To `COc1cnc(Cl)c(F)c1-c1cc(C)ncc1C(=O)Nc1nnc(O[C@@H]2COC3(CC3)C2)s1` (single isomer, unassigned) [Example 209] belongs not below 6.70; to `COc1cnc(Cl)c(F)c1-c1cc(C)ncc1C(=O)Nc1nnc(O[C@H]2COC3(CC3)C2)s1` (single isomer, unassigned) [Example 210], not below 6.70; to `COc1cnc(Cl)cc1-c1cc(C)ncc1C(=O)Nc1nnc(O[C@H]2CC[C@@H]([C@@H](C)O)CC2)s1` (single isomer, unassigned) [Example 212], not below 6.70.
To `COc1cnc(Cl)cc1-c1cc(C)ncc1C(=O)Nc1nnc(O[C@H]2CC[C@@H]([C@H](C)O)CC2)s1` (single isomer, unassigned) [Example 213] belongs not below 6.70.
Compound `COc1cnc(Cl)cc1-c1cc(C)ncc1C(=O)Nc1nnc(O[C@@H]2C[C@H]3CC[C@@H]2O3)s1` (single isomer, unassigned) [Example 216] showed a pIC50 not below 6.70.
To `COc1cnc(Cl)cc1-c1cc(C)ncc1C(=O)Nc1nnc(O[C@H]2C[C@@H]3CC[C@H]2O3)s1` (single isomer, unassigned) [Example 217] belongs not below 6.70; to `COc1cnc(C)c(F)c1-c1cc(C)ncc1C(=O)Nc1nnc(O[C@@H]2C[C@H]3CC[C@@H]2O3)s1` (single isomer, unassigned) [Example 218], not below 6.70.
To `COc1cnc(C)c(F)c1-c1cc(C)ncc1C(=O)Nc1nnc(O[C@H]2C[C@@H]3CC[C@H]2O3)s1` (single isomer, unassigned) [Example 219] belongs not below 6.70.
To `Cc1cc(-c2cc(Cl)ncc2OC(F)F)c(C(=O)Nc2nnc(O[C@H]3CC[C@@](C)(O)CC3)s2)cn1` (single isomer, unassigned) [Example 220, 2′-chloro-5′-(difluoromethoxy)-N-(5-(((1s,4s)-4-hydroxy-4-methylcyclohexyl)oxy)-1,3,4-thiadiazol-2-yl)-6-methyl-(4,4′-bipyridine)-3-carboxamide] belongs not below 6.70; to `COc1cnc(C)c(F)c1-c1cc(C)ncc1C(=O)Nc1nnc(O[C@H]2CC[C@@](C)(O)CC2)s1` (single isomer, unassigned) [Example 221, 3′-fluoro-N-(5-(((1s,4s)-4-hydroxy-4-methylcyclohexyl)oxy)-1,3,4-thiadiazol-2-yl)-5′-methoxy-2′,6-dimethyl-(4,4′-bipyridine)-3-carboxamide], not below 6.70.
The compound `COc1cnc(Br)cc1-c1cc(C)ncc1C(=O)Nc1nnc(O[C@H]2CC[C@@](C)(O)CC2)s1` (single isomer, unassigned) [Example 222, 2′-bromo-N-(5-(((1s,4s)-4-hydroxy-4-methylcyclohexyl)oxy)-1,3,4-thiadiazol-2-yl)-5′-methoxy-6-methyl-(4,4′-bipyridine)-3-carboxamide] gave a negative logarithm of the IC50 (pIC50) not below 6.70.
`Cc1cc(-c2cc(Cl)ncc2OC(F)F)c(C(=O)Nc2nnc(O[C@H]3CC[C@](C)(O)CC3)s2)cn1` (single isomer, unassigned) [Example 223, 2′-chloro-5′-(difluoromethoxy)-N-(5-(((1r,4r)-4-hydroxy-4-methylcyclohexyl)oxy)-1,3,4-thiadiazol-2-yl)-6-methyl-(4,4′-bipyridine)-3-carboxamide] had a negative-log IC50 (pIC50) not below 6.70.
